According to patent US12337003B2, “Pharmaceutical compositions for combination therapy” (Intercept Pharmaceuticals, Inc., priority 2015, dated 2025):

How the values were obtained:
[1] = tested on: fibrosis induced by common bile duct ligation in mice; assay: Bile duct ligation (BDL) model, Sirius-red staining of liver sections; assay type: in vivo, C57BL/6 mice; settings: mean ± SD, OCA 5 mg/kg and/or atorvastatin 10 mg/kg orally once daily day 0 to day 6
Description: This experiment was performed to evaluate the effects of OCA and atorvastatin alone, and in combination, on fibrosis induced by common bile duct ligation in mice.
Male C57BL/6 mice (6 weeks of age) were obtained from Japan SLC. The animals were maintained in a specific pathogen free facility under controlled conditions of temperature (23±2° C.), humidity (45±10%), lighting (12-hour artificial light and dark cycles; light from 8:00 to 20:00), and air exchange (air exchange rate: more than 40 times/hour). A high pressure (20±4 Pa) was maintained in the experimental room to prevent contamination of the facility. The animals were housed in KN-600 (Natsume Seisakusho, Japan) with a maximum of 6 mice per cage. […]
Viability, clinical signs and behavior were monitored daily. Body weight was recorded daily during the treatment period. Food consumption was measured twice weekly per cage during the treatment period. […]
To visualize collagen deposition, Bouin's-fixed left lateral liver sections were stained using picro-Sirius red solution (Waldeck, Germany). For quantitative analysis of the fibrosis area, bright field images of Sirius red-stained sections were captured around the central vein using a digital camera (DFC295; Leica, Germany) at 100-fold magnification, and the positive areas in 5 fields/section were measured using ImageJ software (National Institute of Health, USA). […]

[2] = tested on: APOE*3Leiden.CETP transgenic mice on high fat diet; assay: Diet induced NASH in APOE*3Leiden.CETP mice, hepatic inflammation score; assay type: in vivo; settings: for Inflammation (# of inflammatory cell foci): in high fat diet
Description: (§1) This experiment was performed to evaluate the effects of OCA and fenofibrate, alone or in combination, on the development of diet induced NASH and liver fibrosis in APOE*3Leiden.CETP transgenic mice. Hepatic gene expression profiling and subsequent pathway analysis were performed to determine whether the combination regulates novel genes not regulated by either monotherapy treatment, and/or more strongly regulates genes also impacted by the monotherapy.
Male APOE*3Leiden.CETP transgenic mice (9-21 weeks old) were obtained and housed 2-5 mice per cage. The mice were fed a high fat diet containing 24% lard and 1% (w/w) cholesterol. The run in period was 15 weeks on the high fat diet. At week 16, mice were matched based on age, body weight, plasma cholesterol and triglycerides after 4 h fasting.
• Mice (n=15) were fed a high fat diet during the run in weeks 0 to 14. Group 2: HFC control group • Mice (n=15) were fed a high fat diet from weeks 0 to 24. Group 3: HFC+OCA • Mice (n=15) were fed a high fat diet supplemented with OCA at a dose of 10 mg/kg once daily from week 16 to 24. Group 4: HFC+low dose fenofibrate • Mice (n=15) were fed a high fat diet supplemented with fenofibrate at a dose of 10 mg/kg once daily from week 16 to 24. Group 5: HFC+high dose fenofibrate • Mice (n=15) were fed a high fat diet supplemented with fenofibrate at a dose of 40 mg/kg once daily from week 16 to 24. Group 6: HFC+OCA+low dose fenofibrate • Mice (n=15) were fed a high fat diet supplemented with OCA at a dose of 10 mg/kg once daily and fenofibrate at a dose of 10 mg/kg once daily from week 16 to 24. Group 7: HFC+OCA+high dose fenofibrate • Mice (n=15) were fed a high fat diet supplemented with OCA at a dose of 10 mg/kg once daily and fenofibrate at a dose of 40 mg/kg once daily from week 16 to 24. Group 8: Chow control group • Mice (n=8) were feed chow from week 0 to 24. Study Design
(§2) Mice were fed a high fat chow (HFC) diet for […]. After 15 weeks on the HFC diet, HFC mice were matched into 7 groups based on age, body weight, plasma cholesterol and triglycerides after 4 h fasting. Mice were treated with of OCA and fenofibrate, alone or in combination beginning at week 15 and sacrificed at week 25 in an unfasted state. One week before sacrifice, mice were labeled with D20, by i.p. injection of a bolus of D20 and subsequent addition of 4% D20 to the drinking water. Plasma (EDTA) was obtained by heart puncture and stored at −70° C. The liver was weighed and 4 pieces of liver were isolated: 1 piece (medial lobe) was fixed in 10% formalin (for NASH and fibrosis histology) and 3 pieces (sinister lobe) were snap-frozen in liquid N2 and stored individually at −70° C.
Inflammation is a key feature of NASH. Inflammation was categorized according to the procedure by Liang et al., PlosOne 2014 Dec. 9(12) and scored by quantitatively analyzing the number of inflammatory cells aggregates. In particular, the level of inflammation was evaluated by counting the number of inflammatory foci per field using a 100× magnification (view size of 3.1 mm2; average of five different fields).

[3] = tested on: leukocyte extravasation signaling; assay: Hepatic gene expression profiling (RNA sequencing, pathway analysis) in APOE*3Leiden.CETP mice; assay type: in vivo
Description: as §1, §2
Nucleic acid extraction was performed as described previously in detail (Verschuren et al., 2014). Briefly, total RNA was extracted from individual liver samples using glass beads and RNAzol (Campro Scientific, Veenendaal, The Netherlands). RNA concentration and quality was determined using the Fragment Analyzer (Advanced Analytical Technologies, USA) and the RNA 6000 Nano Lab-on-a-Chip kit and a Bioanalyzer 2100 (Agilent Technologies, Amstelveen, The Netherlands). All samples met the quality requirements and were used in the RNA sequencing procedure.
The NEBNext Ultra Directional RNA library Prep Kit for Illumina was used to process the samples. The sample preparation was performed according to the protocol “NEBNext Ultra Directional RNA Library Prep Kit for Illumina” (NEB #E7420S/L). Briefly, mRNA was isolated from total RNA using oligo-dT magnetic beads. After fragmentation of the mRNA, a cDNA synthesis was performed. This was used for ligation of sequencing adapters and PCR amplification of the resulting product. The quality and yield after sample preparation was measured with the Fragment Analyzer (Advanced Analytical Technologies, USA). The size of the resulting products was consistent with the expected size distribution (a broad peak between 300-500 bp).
Clustering and DNA sequencing using the Illumina […] was performed according manufacturer's protocols. Data was generated using single-end read sequencing protocol obtaining approx. 15 million reads per sample and 75 bp per read. Image analysis, base calling, and quality check was performed with the Illumina data analysis pipeline RTA v2.4.11 to generate the raw data (*.fastq-files).
The reads were mapped to the reference sequence Mus musculus GRCm38.p3 using a short read aligner based on Burrows-Wheeler Transform. The default mismatch rate of 2% (3 mismatches in a read of 150 bases) was used. Based on the mapped read locations in the alignment files (*.bam-files) the frequency of how often a read was mapped on a transcript was determined. The counts were saved to count-files, which served as input for downstream mRNA-seq differential expression analysis. The read counts were loaded into the DESeq package, a statistical package within the R platform. […]

[4] = high dose fenofibrate 40 mg/kg, alone or with OCA 10 mg/kg

CC(C)c1c(C(=O)Nc2ccccc2)c(-c2ccccc2)c(-c2ccc(F)cc2)n1CC[C@@H](O)C[C@@H](O)CC(=O)O [ATO, atorvastatin, reference compound]
Sirius red-positive area (%) [1]: 2.31 ± 0.63%

CC(C)OC(=O)C(C)(C)Oc1ccc(C(=O)c2ccc(Cl)cc2)cc1 [fenofibrate]
Inflammation (# of inflammatory cell foci) ([2]; OCA 10 mg/kg and/or low dose fenofibrate 10 mg/kg): 22.0 ± 15.6 | reduction in inflammation [2, 4]: −74% | Inflammation (# of inflammatory cell foci) [2, 4]: 7.1 ± 5.9 | number of uniquely regulated genes ([3]; Venn diagram, OCA 10 mg/kg, fenofibrate 10 mg/kg, combination): 92 | enrichment analysis of canonical (inflammatory) pathways ([3]; liver mRNA, OCA 10 mg/kg and/or low dose fenofibrate vs HFC): no effect
